Molecules are shown by their SMILES. “And” between values parts separate entries of the source, which are not always exact repeats. Equal values may be shown once.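 Five compound concentrations were applied to cells in 96-well plates for 48 hours; endpoints were derived by simple linear interpolation of the resulting dose-response curve. Here, GI50 denotes the concentration required for 50% inhibition of growth. TGI is the concentration that stops growth completely.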 Bounds are passed on as bounds.

Experimental findings from PubChem BioAssay (NCI) are described below.

Among the test systems are HCT-116 colon; SK-MEL-5 melanoma; SK-MEL-28 melanoma; HOP-62 NSCLC; MOLT-4 leukemia; A549 NSCLC; NCI-H522 lung; UO-31 renal; ACHN renal; IGROV1 ovarian.
Holding throughout (experiment): NCI tumour cell line growth inhibition, 48 h

Regarding `C[C@H]1[C@H]2[C@H]3CC[C@@H]4[C@@]5(C)C/C(=C/c6cccnc6)C(=O)C(C)(C)[C@@H]5CC[C@@]4(C)[C@]3(C)CC[C@]23CO[C@]1(C)[C@@H](C(=O)/C=C\c1cccnc1)C3`, the GI50 in the experiment with HCT-116 colon is 0.385 µM; with SK-MEL-5 melanoma it was 0.836 µM; in the experiment on SK-MEL-28 melanoma, 1.02 µM; in the experiment on HOP-62 NSCLC it was 1.47 µM; with MOLT-4 leukemia, 0.524 µM; in the experiment on A549 NSCLC, 1.22 µM. In addition, the GI50 is 1.15 µM in the experiment with NCI-H522 lung, 0.675 µM in the experiment with UO-31 renal, 1.49 µM in the experiment with ACHN renal and 0.975 µM in the experiment on IGROV1 ovarian. Besides, the TGI in the experiment with HCT-116 colon was 1.28 µM; with SK-MEL-5 melanoma it was 1.54 µM; in the experiment on SK-MEL-28 melanoma, 2.2 µM; with HOP-62 NSCLC, > 15 µM; in the experiment on A549 NSCLC it was 3.29 µM; in the experiment on NCI-H522 lung, 3.07 µM. The values for the TGI in the experiment on UO-31 renal, with ACHN renal and in the experiment with IGROV1 ovarian were 1.37 µM, 4.81 µM and 2.2 µM, respectively.
`NCCN1C(=O)C2C3c4ccccc4C(c4ccccc43)C2C1=O` (centres undefined): the TGI in the experiment on HCT-116 colon, in the experiment on SK-MEL-5 melanoma, in the experiment with SK-MEL-28 melanoma, in the experiment on HOP-62 NSCLC, in the experiment on MOLT-4 leukemia and with A549 NSCLC was > 100 µM each time. Besides, the TGI in the experiment on NCI-H522 lung, with UO-31 renal, with ACHN renal and in the experiment on IGROV1 ovarian was > 100 µM in each case.
In the case of `O=c1c2c3c(sc2nc(N/N=C/c2ccc(Br)cc2)n1Cc1ccccc1)CCCC3`, the GI50 is 5.66 µM with HCT-116 colon; 5.88 µM in the experiment with SK-MEL-5 melanoma; > 100 µM in the experiment on SK-MEL-28 melanoma; 7.7 µM in the experiment with HOP-62 NSCLC; 3.81 µM in the experiment on MOLT-4 leukemia; 46.2 µM in the experiment with A549 NSCLC. For the same compound, the GI50 is 7.21 µM with NCI-H522 lung, 86.6 µM in the experiment with UO-31 renal, > 100 µM in the experiment on ACHN renal and 58.7 µM in the experiment on IGROV1 ovarian. The TGI with HCT-116 colon, with SK-MEL-5 melanoma, in the experiment on SK-MEL-28 melanoma, in the experiment on HOP-62 NSCLC, in the experiment on MOLT-4 leukemia and with A549 NSCLC was > 100 µM throughout. The TGI with NCI-H522 lung, in the experiment with UO-31 renal, in the experiment on ACHN renal and in the experiment on IGROV1 ovarian was > 100 µM in each case.
In the case of `COc1cc2c(cc1OC)C(=O)Cc1ccc(OC)c(OC)c1CN(C)CC2`, the TGI in the experiment on HCT-116 colon, in the experiment with SK-MEL-5 melanoma, in the experiment with SK-MEL-28 melanoma, with HOP-62 NSCLC, in the experiment with MOLT-4 leukemia and with A549 NSCLC was > 100 µM in each case. Further, the TGI in the experiment on NCI-H522 lung, with UO-31 renal, in the experiment on ACHN renal and with IGROV1 ovarian was > 100 µM throughout.
`OC1C2CCC1C1C3C=CC(C3)C21` (centres undefined): the TGI in the experiment on HCT-116 colon, in the experiment on SK-MEL-5 melanoma, with SK-MEL-28 melanoma, in the experiment with HOP-62 NSCLC, with MOLT-4 leukemia and in the experiment with A549 NSCLC was > 100 µM throughout. Further, the TGI in the experiment on NCI-H522 lung, in the experiment with UO-31 renal, in the experiment with ACHN renal and with IGROV1 ovarian was > 100 µM throughout.
Turning to `CC1(C)CCC(C)(C)c2c1ccc(O)c2Cc1c(O)ccc2c1C(C)(C)CCC2(C)C`, the TGI with HCT-116 colon is 4.2 µM; with SK-MEL-5 melanoma it was 3.51 µM; in the experiment on SK-MEL-28 melanoma it was 4.93 µM; in the experiment with HOP-62 NSCLC, 4.1 µM; in the experiment with MOLT-4 leukemia, 4.71 µM; in the experiment with A549 NSCLC it was 5.57 µM. The TGI with NCI-H522 lung was found to be 4.04 µM; with UO-31 renal, 4.04 µM; in the experiment with ACHN renal it was 3.19 µM; in the experiment with IGROV1 ovarian, 3.68 µM.
In the case of `CC(=O)Oc1cc2c(OC(C)=O)c(-c3c(C)cc4c(C(C)C)c(OC(C)=O)c(OC(C)=O)cc4c3OC(C)=O)c(C)cc2c(C(C)C)c1OC(C)=O`, the GI50 in the experiment with HCT-116 colon was 6.22 µM and 6.63 µM and 7.46 µM; in the experiment with SK-MEL-5 melanoma, 17.4 µM and 4.66 µM and 7.79 µM; with SK-MEL-28 melanoma, 5.12 µM and 15.3 µM and 18.8 µM; in the experiment on HOP-62 NSCLC, 6.67 µM and 5.17 µM and 8.71 µM; in the experiment with MOLT-4 leukemia it was 4.48 µM and 23.6 µM and 6.76 µM; with A549 NSCLC, 14.7 µM and 5.12 µM and 9.61 µM. Further, the GI50 in the experiment on NCI-H522 lung is 5.15 µM and 1.52 µM and 5.49 µM; in the experiment with UO-31 renal, 5.73 µM and 5.67 µM and 11.8 µM; in the experiment with ACHN renal, 5.56 µM and 4.86 µM and 8.79 µM; with IGROV1 ovarian it was 16.2 µM and 3.27 µM and 25.8 µM. The TGI is 14.3 µM and 15.9 µM and 14.4 µM in the experiment with HCT-116 colon; 33.2 µM and 9 µM and 17 µM in the experiment with SK-MEL-5 melanoma; 12.4 µM and 35.1 µM and 41.1 µM in the experiment on SK-MEL-28 melanoma; 18.8 µM and 11.7 µM and 24.1 µM in the experiment with HOP-62 NSCLC; 14.9 µM and > 100 µM and 21.2 µM with MOLT-4 leukemia; 30.7 µM and 9.92 µM and 22.2 µM in the experiment on A549 NSCLC. In addition, the TGI in the experiment with NCI-H522 lung is 10.5 µM and 3.23 µM and 11.5 µM; in the experiment on UO-31 renal it was 13.3 µM and 11.9 µM and 33.8 µM; with ACHN renal, 13.2 µM and 11.6 µM and 22.8 µM; in the experiment on IGROV1 ovarian, 33.9 µM and 9.86 µM and 57.5 µM.
In the case of `Cc1ncsc1-c1ccc(CNC(=O)[C@@H]2C[C@@H](O)CN2C(=O)[C@@H](NC(=O)C2(C#N)CC2)C(C)(C)C)cc1`, the GI50 in the experiment with HCT-116 colon, with SK-MEL-5 melanoma, with SK-MEL-28 melanoma, with HOP-62 NSCLC, with MOLT-4 leukemia and in the experiment on A549 NSCLC was > 100 µM throughout. In addition, the GI50 with NCI-H522 lung, in the experiment on UO-31 renal, in the experiment on ACHN renal and with IGROV1 ovarian was > 100 µM each time. Besides, the TGI in the experiment on HCT-116 colon, with SK-MEL-5 melanoma, with SK-MEL-28 melanoma, with HOP-62 NSCLC, with MOLT-4 leukemia and in the experiment on A549 NSCLC was > 100 µM each time. Further, the TGI in the experiment on NCI-H522 lung, in the experiment with UO-31 renal, with ACHN renal and in the experiment on IGROV1 ovarian was > 100 µM throughout.
Take `COc1ccc(-c2cc(-c3ccc(O)cc3)nc3n[nH]c(N)c23)cc1`: the GI50 in the experiment on HCT-116 colon was 17.4 µM; in the experiment on SK-MEL-5 melanoma, 15.1 µM; in the experiment with SK-MEL-28 melanoma it was 33.6 µM; with HOP-62 NSCLC, 21.9 µM; with MOLT-4 leukemia it was 26.9 µM; in the experiment with A549 NSCLC, 26.8 µM. Besides, the GI50 was 14.5 µM with NCI-H522 lung, 10.4 µM in the experiment on UO-31 renal, 18.2 µM in the experiment on ACHN renal and 17 µM in the experiment with IGROV1 ovarian. The TGI in the experiment with HCT-116 colon was 37.3 µM; in the experiment on SK-MEL-5 melanoma it was 28.8 µM; with SK-MEL-28 melanoma, > 100 µM; in the experiment on HOP-62 NSCLC, 53.9 µM; in the experiment on MOLT-4 leukemia it was > 100 µM; in the experiment with A549 NSCLC, > 100 µM. In addition, the TGI worked out at 33.6 µM in the experiment on NCI-H522 lung, 28.2 µM in the experiment on UO-31 renal, 87.9 µM in the experiment on ACHN renal and 52.2 µM in the experiment on IGROV1 ovarian.
